Results on three compounds are retold here after patent US20040158036A1, “Neuritogenic compound and uses thereof” (priority 2004, published 2004).

Entries after “also recorded” stand apart in the source; their conditions may differ. Like-named read-outs stand apart in the source and are kept apart here. Ends that are not written are not given here.

Assay [1] relates to explanted DRG. In words: Neurite outgrowth from explanted DRG cultures (Example 3). The class given is cell-based, C57/B16 mice. The following applies: for neurite outgrowth relative to non-treated cultures / INGAP peptide-stimulated neurite outgrowth after preincubation with anti-NGF antibody: INGAP peptide 1000 ng/mL; for neurite outgrowth relative to non-treated cultures: NGF 50 ng/mL, 17-β-estradiol 10 nM, 4 and 7 days; for overall length and density of neurite outgrowth vs non-treated DRG: 4 days in culture; for neurite outgrowth in combination with 17-β-estradiol vs either drug alone: INGAP peptide 1000 ng/mL + 17-β-estradiol 10 nM; for neurite outgrowth in combination with NGF vs INGAP peptide alone: INGAP peptide 1000 ng/mL + NGF 50 ng/mL; for INGAP peptide-stimulated neurite outgrowth after preincubation with anti-NGF antibody: cultures pre-incubated with anti-NGF antibody. The protocol: (§1) DRG (L3, L4, L5) were dissected from wild-type C57/B16 mice <, and DRG explants were cultured in […] of Matrigel at 37° C. (5% CO2) for 24 h in phenol-red free RPMI 1640 media-free supplemented with 1% penicillin/streptomycin. Neurite outgrowth was followed for 7 days and was visualized with an OLYMPUS™ BX51 system microscope equipped with a Dage-MTI CCD300-RC camera coupled to a Powermate™ 8100 Pentium™III computer (NEC Corp.) with 128 MB RAM. Bright-field microscope images were stored in uncompressed tagged image file format (TIFF) at a resolution of 600 d.p.i. and analyzed using MCID-M5+5.1 image analysis software (Imaging Research Inc.) and SYSTAT 9 statistical software (SPSS Inc.).
(§2) In all experiments, statistical significance was determined using one-way ANOVA and post-hoc Dunnett's test. The experimental group size was n=4-5, and differences were considered significant where P<0.05.

Assay [2] concerns dorsal route ganglia (DRG) explant cultures. In words: Neurite outgrowth in DRG explant cultures (Example 1). The format is cell-based, male C57BL/6 mice. To be noted: DRG explants. The procedure:
Using male C57BL/6 mice, dorsal route ganglia (DRG) explant cultures were established to examine the effect of the INGAP peptide of the present invention on neurite outgrowth (FIG. 1). DRG (L3, L4) were dissected from male C57BL/6 mice, and DRG explants were cultured in 14 uL of Matrigel in 2 ml of RPMI 1640 media+1% antibiotic.

Assay [3] has as its system DRG explant cultures. The assay can be described thus: MTT assay of DRG cell viability (Example 2). The class given is cell-based, Balb/C mice. The protocol: Using DRG explant cultures, we examined the effects of the INGAP peptide of the present invention, as well as other agents, on DRG cell viability using the MTT assay (FIG. 2). DRG (L3, L4) were dissected from Balb/C mice, and DRG explants were cultured in 14 uL of Matrigel in 2 ml of RPMI 1640 media+1% antibiotic. After 48 hours, INGAP, β-estradiol, and/or FK506 were added to the explant cultures as indicated. MTT assay was performed 7 days after the addition of drugs. Data were analyzed using one-way ANOVA with post-hoc Tuckey” test. Differences were consider significant where p<0.05. (n=3-4 per treatment group).
(In general: Tetrazolium dyes change colour on reduction, which living cells bring about.)

Assay [4] concerns explanted DRG. The assay can be described thus: MTT assay, mitochondrial activity in explanted DRG (Example 3). The class given is cell-based, C57/B16 mice. The protocol:
as §1
For cell viability assays, MTT was dissolved in phosphate buffered saline (1.9 mM NaH2PO4, 8.1 mM Na2HPO4, 154 mM NaCl) and applied to DRG explant cultures at a concentration of 1.2 mM for 2 h at (37° C., 5% CO2). Media were then aspirated, and each DRG explant was incubated in […] of DMSO for 1 h. […] of DMSO from each explant was transferred to a 96-well plate and absorbance at 595 nm was read on a Bio-Rad Benchmark plate reader.
as §2

Assay [5] concerns DRG explants. In words: [3H]thymidine incorporation in DRG explants (Example 3). The class given is cell-based, C57/B16 mice. The following applies: 4 days in culture; for [3H] thymidine incorporation relative to non-treated controls: 100 ng/mL. The procedure: as §1
For [3H]thymidine incorporation assays, serum-starved DRG ex-plants cultured in Matrigel were exposed to Ingap (100-1000 ng/mL) for 48 h. 1 p Ci/ml of [3H]thymidine was added to each DRG and kept for an additional 48 h, after which time the DRG were washed four times with ice-cold trichloroacetic acid (10%). Ganglia were lysed on ice in 100pL of tissue solubilizer (NCS-II, Amersham). Lysates were transferred to individual 4 mL scintillation counting vials, and 4 mL of liquid scintillation counting cocktail (Fischer SX25-5 ScintiSafe Plus 50%) was added to each lysate. Counting was performed on a Wallac 1410 liquid scintillation counter.
as §2

For assay [6], the system named is cells associated with the ductal epithelium. To be noted: normal, adult mouse; cited from earlier work.
The test system is the same in assay [7]. The following applies: normal, adult hamster; cited from earlier work.

In the case of `C[C@]12CC[C@@H]3c4ccc(O)cc4CC[C@H]3[C@@H]1CC[C@@H]2O` [17-β-estradiol, reference compound], in assay [1], the “neurite outgrowth relative to non-treated cultures” value is reported as “strong neurite outgrowth”.
Regarding “GLHDPSHGTLPNGSG [15-amino-acid fragment (amino acids 104-118) of Islet Neogenesis Associated Protein]”, the “neurite-promoting effect compared with nerve growth factor (NGF)” value in assay [2] is “comparable”. For the same compound, the neurite-promoting effect entry in assay [2] (FIG. 1) is “effective, in a dose-dependent fashion, as a neurite-promoting agent”. In addition, the “MTT reduction (cell viability)” value in assay [3] (doses 100 ng/mL to 1,500 ng/mL, MTT 7 days after addition of drugs) was “tremendous increase in MTT reduction”. The “dose of maximal effect on MTT reduction” value in assay [3] (no significant change with 1000 or 1,500 ng/mL) was 500 ng/mL. Further, the “neurite outgrowth vs non-treated DRG” value is recorded as “No effects” in assay [1] (100 ng/mL, any time point examined); “did not have a significant effect” in assay [1] (100 ng/mL, any time point examined, listed as INGAP); “continued to significantly enhance neurite outgrowth” in assay [1] (1000 ng/mL, 7 days in culture); “no significant differences” in assay [1] (24 h, regardless of the drug concentration). For the same compound, the “overall length and density of neurite outgrowth vs non-treated DRG” value in assay [1] (500 ng/mL, listed as INGAP) is “significant enhancement”; in assay [1] (500 ng/mL) it was “Significant effects”; in assay [1] (1000 ng/mL), “Significant effects”; in assay [1] (1000 ng/mL, listed as INGAP), “significant enhancement”. Further, the “optimal dose for neurite outgrowth” value in assay [1] (DRG explants) stood at 1000 ng/mL. Also, the “neurite outgrowth in combination with 17-β-estradiol vs either drug alone” value in assay [1] is on record as “No significant enhancement”; in assay [1] (listed as INGAP) it was “not significantly different”. Besides, the figures for the “neurite outgrowth in combination with NGF vs INGAP peptide alone” value in assay [1] and in assay [1] (listed as INGAP) were “enhances neurite outgrowth” and “Enhanced effects on neurite outgrowth”, respectively. For the same compound, the “neurite outgrowth relative to non-treated cultures” value in assay [1] is on record as “strong neurite outgrowth; also recorded: stimulates neurite outgrowth from the DRG explants, to an extent similar to that of the prototypical growth factor”; in assay [1] (listed as INGAP) it was “stimulates neurite outgrowth to an extent similar to that of NGF”. Besides, the “INGAP peptide-stimulated neurite outgrowth after preincubation with anti-NGF antibody” value in assay [1] is “marked reduction”; in assay [1] (listed as INGAP) it was “strong reduction”. Also, the “mitochondrial activity (MTT reduction) vs non-treated controls” value in assay [4] (1000 ng/mL, 4 days in culture) is on record as “significant increase in mitochondrial activity”; in assay [4] (1000 ng/mL, 4 days in culture, listed as INGAP), “significantly larger MTT reduction”; in assay [4] (100, 500, 1000 ng/mL, 24 h in culture), “no significant effects”; in assay [4] (100, 500, 1000 ng/mL, 24 h in culture, listed as INGAP), “no significant effect”; in assay [4] (500 and 1000 ng/mL, 7 days in culture, P>0.05), “trend toward enhanced cell viability”. In addition, the “[3H] thymidine incorporation relative to non-treated controls” value in assay [5] is reported as “no significant effects”; in assay [5] (listed as INGAP) it was “no significant effect”. Moreover, in assay [5] (500 ng/mL), the “increase in [3H] thymidine incorporation relative to non-treated controls” value stood at 3 fold. Moreover, the “islet-cell neogenesis, new islet formation” value in assay [6] and in assay [7] was “potent inducer of islet-cell neogenesis” in each case.
Take “NGF: conventional neurotrophic agent, nerve growth factor [reference compound]”: the “neurite outgrowth relative to non-treated cultures” value in assay [1] is listed as “strong neurite outgrowth”.
